Laboratory results taken from the supplement of paper PMC10307832.

How the values were obtained:
Assay in all cases: relative viability (nuclei count vs DMSO), 5 days (fraction); higher = more cells survive
[1] = system: NCI-H23
Summary of the method: (§1)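 Lung cancer cell lines, seeded in 1536-well plates, were treated the following day by pin tool with a single drug or with five library-drug doses (not always all listed) in √10 steps on top of a fixed anchor-drug dose. Cells were fixed and nuclei stained in one step after 5 days, and nuclei were counted. Relative viability is the nuclei count for treated wells divided by that for vehicle wells, reported as medians of duplicate plates.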

[2] = system: NCI-H3122
Summary of the method: as §1

[3] = system: NCI-H522
Summary of the method: as §1

[4] = system: EMC-BAC-2
Summary of the method: as §1

[5] = system: NCI-H596
Summary of the method: as §1

[6] = system: NCI-H650
Summary of the method: as §1

[7] = system: NCI-H2023
Summary of the method: as §1

[8] = system: NCI-H2126
Summary of the method: as §1

[9] = system: NCI-H1993
Summary of the method: as §1

[10] = system: HARA
Summary of the method: as §1

[11] = system: BEN
Summary of the method: as §1

Nc1ccn([C@@H]2O[C@H](CO)[C@@H](O)[C@@H]2O)c(=O)n1 [Cytarabine] + O=C(CCCCCCC(=O)Nc1ccccc1)NO [Vorinostat] (partner 1 µM)
relative viability ([1]; first compound 0.005 µM): 0.65
relative viability ([1]; first compound 0.01581 µM): 0.511
relative viability ([1]; first compound 0.05 µM): 0.306
relative viability ([1]; first compound 0.1581 µM): 0.156
relative viability ([1]; first compound 0.5 µM): 0.122
relative viability ([2]; first compound 0.005 µM): 0.938
relative viability ([2]; first compound 0.01581 µM): 0.914
relative viability ([2]; first compound 0.05 µM): 0.894
relative viability ([2]; first compound 0.1581 µM): 0.695
relative viability ([2]; first compound 0.5 µM): 0.293
relative viability ([3]; first compound 0.005 µM): 0.993
relative viability ([3]; first compound 0.01581 µM): 0.837
relative viability ([3]; first compound 0.05 µM): 0.694
relative viability ([3]; first compound 0.1581 µM): 0.615
relative viability ([3]; first compound 0.5 µM): 0.563
relative viability ([4]; first compound 0.005 µM): 0.494
relative viability ([4]; first compound 0.01581 µM): 0.448
relative viability ([4]; first compound 0.05 µM): 0.165
relative viability ([4]; first compound 0.1581 µM): 0.29
relative viability ([4]; first compound 0.5 µM): 0.182
relative viability ([5]; first compound 0.005 µM): 0.545
relative viability ([5]; first compound 0.01581 µM): 0.553
relative viability ([5]; first compound 0.05 µM): 0.502
relative viability ([5]; first compound 0.1581 µM): 0.431
relative viability ([5]; first compound 0.5 µM): 0.272
relative viability ([6]; first compound 0.005 µM): 0.417
relative viability ([6]; first compound 0.01581 µM): 0.315
relative viability ([6]; first compound 0.05 µM): 0.212
relative viability ([6]; first compound 0.1581 µM): 0.136
relative viability ([6]; first compound 0.5 µM): 0.112
relative viability ([7]; first compound 0.005 µM): 0.434
relative viability ([7]; first compound 0.01581 µM): 0.225
relative viability ([7]; first compound 0.05 µM): 0.22
relative viability ([7]; first compound 0.1581 µM): 0.101
relative viability ([7]; first compound 0.5 µM): 0.0846
relative viability ([8]; first compound 0.005 µM): 0.649
relative viability ([8]; first compound 0.01581 µM): 0.681
relative viability ([8]; first compound 0.05 µM): 0.448
relative viability ([8]; first compound 0.1581 µM): 0.593
relative viability ([8]; first compound 0.5 µM): 0.44
relative viability ([9]; first compound 0.005 µM): 0.865
relative viability ([9]; first compound 0.01581 µM): 0.556
relative viability ([9]; first compound 0.05 µM): 0.751
relative viability ([9]; first compound 0.1581 µM): 0.503
relative viability ([9]; first compound 0.5 µM): 0.602
relative viability ([10]; first compound 0.005 µM): 0.694
relative viability ([10]; first compound 0.01581 µM): 0.44
relative viability ([10]; first compound 0.05 µM): 0.52
relative viability ([10]; first compound 0.1581 µM): 0.458
relative viability ([10]; first compound 0.5 µM): 0.347
relative viability ([11]; first compound 0.005 µM): 0.553
relative viability ([11]; first compound 0.01581 µM): 0.56
relative viability ([11]; first compound 0.05 µM): 0.447
relative viability ([11]; first compound 0.1581 µM): 0.394
relative viability ([11]; first compound 0.5 µM): 0.364
